These results are taken from patent US9340513B2, “Propenoate derivatives of betulin” (GlaxoSmithKline LLC, priority 2011, dated 2016).

Test [1] concerns HIV. The conditions noted are these: cited from earlier work.
For test [2], the system named is HIV-1 (strain IIIB). Kind of test: MT4 Cell Antiviral Assay. The class given is cell-based. The settings on record: Human immunodeficiency virus 1, 120 h; HIV-1 strain IIIB in MT4 cells, 5 days, Cell Titer-Glo; 50% decrease in HIV-induced cytopathic effect. Summed up:
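MT4 cells infected 1 h with HIV-1 IIIB (300×TCID50/million cells), then cultured 5 days with serially diluted compound; mock-infected cells run in parallel for cytotoxicity. Luminescence read-out. IC50 = concentration restoring 50% of infected-cell growth relative to uninfected controls, excluding concentrations leaving ≤79% of uninfected cells.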
In general terms: In ATP-based viability assays light output follows the ATP content of the culture.

Molecules are shown by their SMILES.

Turning to `C=C(C)[C@@H]1CC[C@]2(C(=O)O)CC[C@]3(C)[C@H](CC[C@@H]4[C@@]5(C)CC[C@H](OC(=O)CC(C)(C)C(=O)O)C(C)(C)[C@@H]5CC[C@]43C)[C@@H]12` [Bevirimat], the “mean reduction of HIV viral load” value in test [1] (patients with trough levels >=20 μg/mL and without key baseline Gag polymorphisms at Q369, V370 or T371) is 1.3 log10/mL. Further, the “viral load reduction versus patients without Gag polymorphisms” value in test [1] (users with Gag polymorphisms at Q369, V370 or T371) is reported as “significantly lower load reductions”.

In general, IC50 refers to the point on the concentration scale where inhibition reaches its midpoint. Compound `CC(C)C1=C2[C@H]3CC[C@@H]4[C@@]5(C)CC[C@H](OC(=O)CC(C)(C)C(=O)O)C(C)(C)[C@@H]5CC[C@@]4(C)[C@]3(C)CC[C@@]2(/C=C/C(=O)N[C@@H](C)c2cccc(Cl)c2)CC1` [Example 34, 4-(((3aR,5aR,5bR,7aR,9S,11aR,11bR,13aS)-3a-((E)-3-(((S)-1-(3-Chlorophenyl)ethyl)amino)-3-oxoprop-1-en-1-yl)-1-isopropyl-5a,5b,8,8,11a-pentamethyl-3,3a,4,5,5a,5b,6,7,7a,8,9,10,11,11a,11b,12,13,13a-octadecahydro-2H-cyclopenta[a]chrysen-9-yl)oxy)-2,2-dimethyl-4-oxobutanoic acid] displayed an IC50 in test [2] of 10 to 250 nM.
